Common to all, as to test: Kinase panel profiling at 1 µmol/L (MSA or IMAP), percentage inhibition
Type in all cases: biochemical

In experiment [1] the target is panel of 255 wild-type kinases (Homo sapiens, UniProt Q8IU85). The note with it: CaMK1δ kinase assay; 1 µmol/L single concentration; read-out: %-inhibition CaMK1δ.
Experiment [2] has as its target panel of 255 wild-type kinases (Homo sapiens, UniProt Q9Y6E0). The following applies: MST3; 1 µmol/L single concentration; read-out: %-inhibition, MST3.
Experiment [3] deals with panel of 255 wild-type kinases (Homo sapiens, UniProt P07333). The following applies: kinase FMS; 1 µmol/L single concentration; read-out: %-inhibition at 1 µmol/L, FMS.
Experiment [4] deals with T1, panel of 255 wild-type kinases (Homo sapiens, UniProt Q92630).
T1 sequence (Q92630 1-601): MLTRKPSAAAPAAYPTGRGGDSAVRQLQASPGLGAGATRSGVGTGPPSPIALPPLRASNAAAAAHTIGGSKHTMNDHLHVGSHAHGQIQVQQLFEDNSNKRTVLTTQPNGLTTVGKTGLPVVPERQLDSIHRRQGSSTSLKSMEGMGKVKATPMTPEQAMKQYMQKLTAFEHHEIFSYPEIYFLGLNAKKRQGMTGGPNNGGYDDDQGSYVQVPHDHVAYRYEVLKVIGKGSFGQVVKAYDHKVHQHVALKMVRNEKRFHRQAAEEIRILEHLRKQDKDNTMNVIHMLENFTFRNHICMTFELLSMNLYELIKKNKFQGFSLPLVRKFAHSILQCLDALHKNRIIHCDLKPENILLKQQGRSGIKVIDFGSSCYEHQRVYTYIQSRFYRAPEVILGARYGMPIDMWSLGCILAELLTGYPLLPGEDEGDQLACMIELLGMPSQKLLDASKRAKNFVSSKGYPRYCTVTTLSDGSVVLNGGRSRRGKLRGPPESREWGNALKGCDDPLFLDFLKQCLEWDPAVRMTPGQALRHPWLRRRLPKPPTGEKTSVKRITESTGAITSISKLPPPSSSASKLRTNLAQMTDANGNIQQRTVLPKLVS
The following applies: kinase DYRK2; 1 µmol/L single concentration; read-out: %-inhibition at 1 µmol/L, DYRK2.

The target of experiment [5] is T2, panel of 255 wild-type kinases (Homo sapiens, UniProt O14965).
T2 sequence (O14965 1-403): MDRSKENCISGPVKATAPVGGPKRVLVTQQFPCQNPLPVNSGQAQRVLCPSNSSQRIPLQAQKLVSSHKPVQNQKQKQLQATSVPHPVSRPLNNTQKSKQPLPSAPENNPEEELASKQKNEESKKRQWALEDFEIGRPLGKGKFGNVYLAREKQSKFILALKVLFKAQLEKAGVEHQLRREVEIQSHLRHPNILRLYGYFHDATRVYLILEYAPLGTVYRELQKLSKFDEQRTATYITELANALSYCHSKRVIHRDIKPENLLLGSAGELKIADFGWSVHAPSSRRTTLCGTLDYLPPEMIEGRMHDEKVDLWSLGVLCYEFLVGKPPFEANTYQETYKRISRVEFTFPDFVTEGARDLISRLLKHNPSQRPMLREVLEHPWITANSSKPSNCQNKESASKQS
The following applies: 1 µmol/L single concentration.

In experiment [6] the target is panel of 255 wild-type kinases (Homo sapiens, UniProt Q16644). The following applies: MAPKAPK3; 1 µmol/L single concentration; read-out: %-inhibition, MAPKAPK3.
Experiment [7] deals with T3, panel of 255 wild-type kinases (Homo sapiens, UniProt O94806).
T3 sequence (O94806 1-890): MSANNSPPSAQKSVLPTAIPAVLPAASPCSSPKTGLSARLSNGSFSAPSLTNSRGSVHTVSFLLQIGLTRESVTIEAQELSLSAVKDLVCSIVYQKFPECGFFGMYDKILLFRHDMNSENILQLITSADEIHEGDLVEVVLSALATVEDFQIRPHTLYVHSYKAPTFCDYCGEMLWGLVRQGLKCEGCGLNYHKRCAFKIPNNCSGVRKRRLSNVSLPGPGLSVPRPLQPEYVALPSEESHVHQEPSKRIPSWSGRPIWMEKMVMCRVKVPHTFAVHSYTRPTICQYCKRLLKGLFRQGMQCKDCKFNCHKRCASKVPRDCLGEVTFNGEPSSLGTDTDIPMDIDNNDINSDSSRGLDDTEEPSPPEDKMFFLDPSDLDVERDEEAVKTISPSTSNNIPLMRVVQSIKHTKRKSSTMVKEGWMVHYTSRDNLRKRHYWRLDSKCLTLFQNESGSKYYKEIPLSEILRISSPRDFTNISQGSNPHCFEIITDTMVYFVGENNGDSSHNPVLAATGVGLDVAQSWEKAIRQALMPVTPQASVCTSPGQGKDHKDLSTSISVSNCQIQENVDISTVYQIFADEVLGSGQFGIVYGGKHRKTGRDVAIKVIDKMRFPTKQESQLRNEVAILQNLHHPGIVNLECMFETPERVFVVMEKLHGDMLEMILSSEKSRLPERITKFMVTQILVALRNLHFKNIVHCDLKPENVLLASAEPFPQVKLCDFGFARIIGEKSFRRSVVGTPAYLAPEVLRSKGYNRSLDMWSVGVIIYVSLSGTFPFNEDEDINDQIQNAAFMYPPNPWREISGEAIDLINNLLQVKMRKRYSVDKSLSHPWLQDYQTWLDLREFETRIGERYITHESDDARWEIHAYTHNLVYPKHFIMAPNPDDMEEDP
The following applies: kinase PKD3; 1 µmol/L single concentration; read-out: %-inhibition at 1 µmol/L, PKD3.

The mark [8] stands for this setting: AurA kinase assay, read-out: %-inhibition AurA.
Where [9] appears, read: AurA/TPX2 kinase assay, read-out: %-inhibition AurA/TPX2.

Drawing on paper PMC9516332 (Frontiers in Oncology, 2022), this text covers inhibition for 3 compounds.

Where two headings read alike, the source gives them in different places.

Turning to `Cn1cnc2c(F)c(Nc3ccc(Br)cc3Cl)c(C(=O)NOCCO)cc21` [selumetinib], the inhibition at 1 µM was -3.34% in experiment [1]; 3% in experiment [2]; 8.51% in experiment [3]; -2.7% in experiment [4]; -5.67% in experiment [5] (setting [8]); -8% in experiment [5] (setting [9]). Further, the inhibition at 1 µM in experiment [6] is -14%; in experiment [7], 0.359%.

As to `Cc1cc(Nc2ncnc3ccc(NC4=NC(C)(C)CO4)cc23)ccc1Oc1ccn2ncnc2c1` [tucatinib], the inhibition at 1 µM was -3.73% in experiment [1]; 10% in experiment [2]; 12% in experiment [3]; 8.45% in experiment [4]; -1.53% in experiment [5] (setting [8]); -9% in experiment [5] (setting [9]). In addition, the inhibition at 1 µM in experiment [6] was -3%; in experiment [7] it was 39%.

`C=CC(=O)N1CCC([C@@H]2CCNc3c(C(N)=O)c(-c4ccc(Oc5ccccc5)cc4)nn32)CC1` [zanubrutinib]: the inhibition at 1 µM was -1.26% in experiment [1]; 0.0873% in experiment [2]; -7% in experiment [3]; 13% in experiment [4]; -1.42% in experiment [5] (setting [8]); -0.885% in experiment [5] (setting [9]). Besides, the inhibition at 1 µM was -12% in experiment [6] and 13% in experiment [7].
